Test results as given in patent publication US6838467B2, “Dosing regimen” (Janssen Pharmaceutica N. V., priority 2000, dated 2005).

Tests used:
Assay type in all cases: in vivo
[1] = tested on: T24 H-ras transformed NIH3T3 cell tumors; test: Tumor studies in nude mice: T24 H-ras tumors, oral compound 1
From the text: (§1) Cell Culture: CAPAN-2 human pancreatic carcinoma cells were purchased from the American Type Culture Collection (Rockville, Md.). Cells were maintained in McCoys 5A Medium supplemented with 10% fetal calf serum and penicillin-streptomycin. NIH 3T3 cells transfected with the activated T24 H-ras oncogene (T24 cells ) were obtained from, Janssen Research Foundation (For methods see Parada, L. F., Tabin, C. J., Shih, C., and Weinberg, R Human EJ bladder carcinoma oncogene is
homologue of Harvey sarcoma virus ras gene. Nature 297: 474-478, 1982.; Santos, E., Tronick, S. R., Aaronson, S. A., Pulciani, S., and Barbacid, M. T24 human bladder carcinoma oncogene is an activated form of the normal human homologue of BALB-and Harvey-MSV transforming genes. Nature 298: 343-347, 1982.) T24 cells were maintained as monolayer cultures in Dulbecco's Modified Eagle's Medium (DMEM) supplemented with 10% Nu-serum Type IV (Collaborative Biomedical Products, Bedford, Mass. and 40 μg/ml G418 (Geneticin®, GIBCO-BRL, Gaithersburg, Md.).
(§2) Animals: Female nu/nu immunodeficient nude mice (42 days old) were purchased from Charles River Laboratories (Wilmington, Mass.). Mice were housed five per cage in microisolator cages placed in laminar flow shelving to maintain sterility. All bedding, food, water and cages were autoclaved. Animals were handled within the sterile confines of a laminar flow cabinet. The mice were otherwise maintained under standard vivarium conditions. Tumor studies were conducted under a protocol approved by the Institutional Animal Care and Use Committee.
(§3) Tumor Studies In Nude Mice: Cells growing as monolayers in T150 tissue culture flasks were detached by trypsinization with 10 ml of 0.05% trypsin plus 0.53 mM EDTA per flask. Tumor cell suspensions were pooled and trypsin was inactivated by the addition of serum containing medium (10 ml per 40 ml of trypsin cell suspension). Cells were collected by centrifugation and resuspended in Hank's Balanced Salt Solution (HBSS) warmed to 37° C. A 1.0 ml portion of cell suspension was added to 20 ml of diluent and counted on a Coulter particle counter. The cell suspensions were recentrifuged and resuspended at a concentration of 1×10^6 cell per 0.10 ml of HBSS. Mice were inoculated with a single subcutaneous injection of 0.10 ml of tumor cell suspension in the inguinal region. Mice were housed five per cage with 15 mice assigned to each treatment group. Body weight and tumor size as determined by caliper measurements were measured weekly. The caliper measurements of length and width were multiplied to obtain tumor areas. At the end of study, mice were sacrificed by CO2 asphyxiation.
Three days after tumor inoculation, the five day treatment with (R)-6-[amino(4-chlorophenyl)(1-methyl-1H-imidazol-5yl)methyl]-4-(3-chlorophenyl)-1-methyl-2(1H)-quinolinone (compound 1) was initiated. Compound 1 was administered once daily by oral gavage in a 20% beta-cyclodextrin vehicle as a volume of 0.10 ml of solution per 10 gm body weight. Control groups received the same dosage volume of the 20% beta-cyclodextrin vehicle.
Compounds. Compound 1 was prepared for oral administration by dissolving the compound first as a 2× concentrated stock in 40% hydroxypropyl beta cyclodextrin (lot no. 051-071/1) in 0.1 N HCI. Compound 1 was dissolved by stirring vigorously approximately 30 minutes followed by sonication for 10 min. The compound 1 solutions were brought to a final concentration by diluting 1:1 with 0.1 N HCI. The final drug solutions were sterile filtered immediately and transferred to sterile tubes. Solutions were stored refrigerated and protected form light during the course of the study and sterility was maintained by opening solutions under sterile laminar flow conditions.

[2] = tested on: CAPAN-2 human pancreatic tumors; test: Tumor studies in nude mice: CAPAN-2 tumors, oral compound 1; settings: for tumor growth, continuous schedule: continuous for 18 days, previous study
From the text: as §1, §2, §3
[…] […] Control groups received the same dosage volume of the 20% beta-cyclodextrin vehicle.
[…] […] […] […] The final drug solutions were sterile filtered immediately and transferred to sterile tubes. Solutions were stored refrigerated and protected form light during the course of the study and sterility was maintained by opening solutions under sterile laminar flow conditions.

[3] = tested on: T24 H-ras transformed NIH3T3 cell tumors; test: Tumor studies in nude mice: T24 H-ras tumors, oral compound 1; settings: for duration of response (tumor suppressive effect): five-day dosing schedule
[4] = 50, 100 and 200 mg/kg, five-day schedule, day 17

Cn1cncc1[C@@](N)(c1ccc(Cl)cc1)c1ccc2c(c1)c(-c1cccc(Cl)c1)cc(=O)n2C [compound 1, (R)-6-[amino(4-chlorophenyl)(1-methyl-1H-imidazol-5yl)methyl]-4-(3-chlorophenyl)-1-methyl-2(1H)-quinolinone]
duration of response (tumor suppressive effect) ([1]; 50 mg/kg, five-day dosing schedule): waned by day 14
tumor size on day 17 ([1]; 200 mg/kg once daily p.o. for five days (days 3-8 after tumor inoculation), day 17): small tumors
reduction of final tumor weights ([1]; 200 mg/kg, five-day schedule, day 17): 90%
reduction of tumor growth measured as final tumor area [1, 4]: Significant, dose-related reductions
reduction of tumor growth measured as final tumor weights [1, 4]: Significant, dose-related reductions
tumor growth after additional 5-day treatment ([1]; additional 5-day treatment with 200 mg/kg starting on day 21): again arrested but not as dramatically as in the initial treatment
tumor growth, continuous schedule ([2]; 50 mg/kg twice daily (100 mg/kg total daily dose)): significant reductions of tumor growth
tumor growth, continuous schedule ([2]; 100 mg/kg twice daily (200 mg/kg daily dose)): significant reductions of tumor growth
tumor growth after day 24 without further treatment ([2]; 200 mg/kg for five days, no further treatment): returned to the growth rate observed for vehicle treated controls
growth of CAPAN-2 tumors ([2]; 200 mg/kg p.o. once daily for five days, started three days after inoculation): significantly reduced the growth of CAPAN-2 tumors out to day 24
tumor growth after additional five-day treatment ([2]; additional five-day treatment on days 21 to 25, significant on day 28): transient growth arrest
duration of response (tumor suppressive effect) ([3]; 100 mg/kg): waned by day 14
duration of response (tumor suppressive effect) ([3]; 200 mg dose): sustained effects out to day 17
day by which tumors left untreated returned to rapid control growth rates ([3]; 200 mg/kg once daily p.o. for five days, no further treatment): ≤ 24 days
duration of sustained inhibition of tumor growth ([3]; single 200 mg/kg dose three days after tumor inoculation): 15 days
duration of sustained inhibition of tumor growth ([3]; single 400 mg/kg dose three days after tumor inoculation): 15 days
